Data from publication PMC10253591, “A Non-Systemic Phosphodiesterase-5 Inhibitor Suppresses Colon Proliferation in Mice” (International Journal of Molecular Sciences, 2023).
pEC50, pIC50: −log10 of the molar value.

Assays:
[1] = system: mice; experiment: Arterial blood pressure by telemetry, interaction with isosorbide mononitrate; format: in vivo; details: ISMN 300 mg/kg i.p. alone (oral vehicle), baseline around 100 mmHg
Method: Male C57BL/6J mice (n = 4) were implanted with a PA-C10 blood pressure transmitter in the right carotid artery (Data Sciences International, St. Paul, MN, USA), and after recovery from surgery, the data was recorded using the DSI PhysioTel system (Data Sciences International, St. Paul, MN, USA). For each experiment, the mice were randomly selected for treatment with ISMN mixed in diH20, and 0.1 mL was injected i.p. for a final dose of 300 mg/kg. […] The experiment was repeated until each treatment had been reproduced in 5 independent biological trials after which mice were euthanized.
The surgical procedures and implantable telemetry approach for measuring blood pressure in mice have been described in detail previously. In brief, all surgical instruments were autoclaved on a stainless-steel tray that was used as the sterile surface during surgery. The mouse is anesthetized in an isoflurane-inducing chamber. Anesthesia used a fitted nose cone connected to an isoflurane system running 2% in a stream of 100% oxygen mixed with room air. The incision area was shaved and prepped with betadine and rinsed with 70% ethanol. Anesthesia was assessed continuously during shaving and prepping for surgery, with appropriate adjustments. An approximately 10 mm incision was made in the ventral neck region over the trachea to expose the […]. […]

[2] = system: colon epithelium; experiment: Cell proliferation in the colon epithelium (Ki67 flow cytometry, PCNA IHC); format: in vivo; details: mice, 9 mg/kg in drinking water; for Ki67+ cells, median: 8 days, proximal colon epithelium, flow cytometry, control 23%; for reduction of number of PCNA+ cells/crypt: distal colon, IHC
Source text: Mice were weighed daily, and after at least 5 days of continuous consumption they were sacrificed, and the colon was dissected and processed for quantitation of proliferation by flow cytometry (proximal region) and by IHC (distal region). For flow cytometry, the epithelium was enriched by isolating crypts as described previously, followed by ethanol fixation and staining with phycoerythrin-conjugated anti-mouse Ki-67 antibodies according to the manufacturer instructions (Biolegend, San Diego, CA, USA). Flow cytometry was carried out using a BD Accuri C6 flow cytometer, and data were analyzed using FCS Express 7 software (De Novo Software, Pasadena, CA, USA). Processing the distal colon tissues for histology and immunohistochemistry was carried out as previously described. Briefly, tissues were fixed with 10% formaldehyde, embedded in paraffin blocks, and sectioned by the Augusta University histology core. The tissues were probed using antibodies to PCNA (1:100; Cell Signaling, Danvers, MA, USA). Visualization of PCNA antibodies was carried out using the ImmunoCruz ABC kit (Santa Cruz Biotechnology, Dallas, TX, USA). At least 10 different regions of the colon containing approximately 8 crypts per region were counted for each mouse.

[3] = system: LS-174T colon cancer cells; experiment: Cell-based permeability assay: cellular cGMP (ELISA) in linaclotide-treated cells; details: LS-174T cells; for pEC50: Homo sapiens, LS174T, 1 µM linaclotide, 4 h, cGMP ELISA, read-out: EC50 for increasing cellular cGMP levels
Method: The cell-based permeability assays were performed using LS-174T colon cancer cells obtained from the American Type Culture Collection. Cells were treated with 1 µM linaclotide together with different PDE5i concentrations for 4 h, followed by processing of cell extracts for cellular cGMP measurement using cGMP ELISA kits according to the manufacturer instructions (Cayman Chemical, Ann Arbor, MI, USA). The calculated EC50 values are the concentration of compound required to increase cellular cGMP levels by 50% of maximum based on predictions determined by curve fitting in GraphPad Prism 9 (San Diego, CA, USA). To assess activation of cGMP signaling by immunoblotting, we used LS174T cells with inducible PKG2 expression that were described recently.

[4] = LC-MS/MS measurement of compound in plasma and feces after oral gavage; details: mice; for level in feces: feces collected between 2–4 h
[5] = system: mice; experiment: Tolerability and plasma level with compound in drinking water for up to 8 days; format: in vivo
[6] = target: T1, human PDE5a (Homo sapiens, UniProt O76074); experiment: In vitro assay for PDE5 inhibitory activity (commercial kit); format: biochemical; details: mean of n = 3
T1 construct: purchased BPS Bioscience

[7] = in vivo; details: both, mouse, po
[8] = Tolerability and plasma level with compound in drinking water for up to 8 days; format: in vivo; details: male, mouse, plasma, oral, 9 mg/kg daily; mice, in drinking water for 8 days
[9] = both, mouse, in vivo, po
[10] = 9 mg/kg in drinking water, up to 8 days

Row | pEC50 [3] | fold less potent than parent compound at increasing cGMP levels, based upon EC50 ([3]; versus sildenafil) [fold] | level in feces ([4]; oral 9 mg/kg) [µg/g] | level in feces ([4]; oral 36 mg/kg) [µg/g] | level in plasma ([4]; oral, doses up to 36 mg/kg, 1 h after administration) | excretion in feces ([4]; single oral 9 mg/kg, 8 h after administration) | level in plasma at other times of time course ([4]; single oral 9 mg/kg, any time other than 1 h during 24 h) | plasma peak in time course ([4]; single oral 9 mg/kg, at 1 h) [nM] | pIC50 [6] | concentration at 1 h ([7]; 9 mg/kg) [nM] | concentration at 1 h ([7]; 36 mg/kg) [nM] | time of peak in plasma [9] [h] | SMILES | arterial blood pressure after drug [1] [mmHg] | Ki67+ cells, median [2] [%] | reduction of number of PCNA+ cells/crypt [2] | body weight compared to sildenafil or water alone [5, 10] | observed deleterious effects [5, 10] | histological analysis of the colon mucosa ([5]; 8 days in drinking water, H&E) | level in plasma ([5]; in drinking water for 8 days) | concentration at 8 days [8] [nM]
1 |  |  |  |  |  |  |  |  |  |  |  |  | O=[N+]([O-])O[C@@H]1CO[C@H]2[C@@H]1OC[C@@H]2O [ISMN, isosorbide mononitrate] | 126 |  |  |  |  |  |  | 
2 | 4.92 | 18 | 90 | 244 | did not result in detectable levels | continued to be excreted at high levels | not detected | 11 | 8.19 |  |  |  | CCCc1nn(C)c2c(=O)[nH]c(-c3cc(S(=O)(=O)N4CCN(C(=O)CC(=O)O)CC4)ccc3OCC)nc12 [malonyl-sildenafil] |  | 7 | about 30% | no difference | no observed deleterious effects | no obvious epithelial damage, edema or leukocyte infiltration | not detected | 
3 | 6.17 |  |  |  |  |  |  |  |  | 250 | 3500 | 1 to 2 | CCCc1nn(C)c2c(=O)[nH]c(-c3cc(S(=O)(=O)N4CCN(C)CC4)ccc3OCC)nc12 [sildenafil, reference compound] |  | 11 | about 30% |  |  |  |  | 3.3
